# Data from US8008291B2 (Mimetica Pty Ltd, priority 2008, dated 2011).
# Target: T1, human MC5R (hMC5R) (Homo sapiens, UniProt P33032)
# T1 construct: purchased Perkin Elmer RBXMC5M400UA
# Test: Human MC5R radioligand binding assay (membranes, [125I] NDP-MSH displacement)
# Details: hMC5R binding; tested as trifluoroacetate or hydrochloride salts, or free bases; read-out: MC5R radioligand IC50
# Method in brief: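 Frozen human MC5R membranes incubated with test compound and in-house iodogen-labeled, HPLC-purified [125I]NDP-MSH for 1 hr at 37° C. Binding measured as displacement of the radioligand.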
# T1 sequence (P33032 whole entry): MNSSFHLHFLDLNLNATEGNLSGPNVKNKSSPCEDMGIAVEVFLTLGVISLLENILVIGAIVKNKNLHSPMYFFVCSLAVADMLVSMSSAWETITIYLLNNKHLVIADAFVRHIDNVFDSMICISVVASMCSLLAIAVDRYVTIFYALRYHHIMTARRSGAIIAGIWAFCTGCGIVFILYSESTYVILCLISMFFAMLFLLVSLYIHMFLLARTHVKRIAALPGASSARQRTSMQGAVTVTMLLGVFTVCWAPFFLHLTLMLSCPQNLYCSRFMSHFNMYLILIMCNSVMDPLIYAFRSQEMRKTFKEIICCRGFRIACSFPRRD
row,SMILES,IC50 [µM]
1,"CC[C@H](CN1CC[C@@H](CNC(=O)c2csc(-c3ccccc3)n2)N[C@@H](CCN2CCCCC2)C1=O)c1ccccc1 [Compound 496, N-(((3S,5S)-2-oxo-1-((S)-2-phenylbutyl)-3-(2-(piperidin-1-yl)ethyl)-1,4-diazepan-5-yl)methyl)-2-phenylthiazole-4-carboxamide]",< 0.1
2,"CC[C@@H](CN1CC[C@@H](CNC(=O)c2ccc3cc(Cl)ccc3c2)N[C@@H](CCN2CCCCC2)C1=O)C(C)C [Compound 471, 6-chloro-N-(((3S,5S)-1-((R)-2-ethyl-3-methylbutyl)-2-oxo-3-(2-(piperidin-1-yl)ethyl)-1,4-diazepan-5-yl)methyl)-2-naphthamide]",< 0.1
3,"N=C(N)NCCC[C@@H]1N[C@H](CNC(=O)[C@@H]2Cc3ccccc3CN2)CCN(CC(c2ccccc2)c2ccccc2)C1=O [Compound 131, (S)—N-(((3S,5S)-1-(2,2-diphenylethyl)-3-(3-guanidinopropyl)-2-oxo-1,4-diazepan-5-yl)methyl)-1,2,3,4-tetrahydroisoquinoline-3-carboxamide]",< 10
4,"Cc1ccc(/C=C/C(=O)NC[C@@H]2CCN(CC(c3ccccc3)c3ccccc3)C(=O)[C@H](CCN)N2)c(C)c1 [Compound 399, (E)-N-(((3S,5S)-3-(2-aminoethyl)-1-(2,2-diphenylethyl)-2-oxo-1,4-diazepan-5-yl)methyl)-3-(2,4-dimethylphenyl)acrylamide]",< 1
5,"O=C(/C=C/c1ccc(Cl)cc1)NC[C@@H]1CCN(CC(c2ccccc2)c2ccccc2)C(=O)[C@H](CNC(=O)c2ccccn2)N1 [Compound 393, N-(((2S,7S)-7-(((E)-3-(4-chlorophenyl)acrylamido)methyl)-4-(2,2-diphenylethyl)-3-oxo-1,4-diazepan-2-yl)methyl)picolinamide]",< 10
6,"CC[C@@H](CN1CC[C@@H](CNC(=O)c2ccc3cc(Cl)ccc3c2)N[C@@H](CCN2CCCCC2)C1=O)c1ccsc1 [Compound 510, 6-chloro-N-(((3S,5S)-2-oxo-3-(2-(piperidin-1-yl)ethyl)-1-((R)-2-(thiophen-3-yl)butyl)-1,4-diazepan-5-yl)methyl)-2-naphthamide]",< 0.1
7,"CC[C@H](CN1CCC(CNC(=O)c2ccc3cc(Cl)ccc3c2)NC(C2CCN(C(C)C)CC2)C1=O)c1ccccc1 (stereo partly drawn) [Compound 525, (S)-6-chloro-N-((3-(1-isopropylpiperidin-4-yl)-2-oxo-1-(2-phenylbutyl)-1,4-diazepan-5-yl)methyl)-2-naphthamide]",< 0.1
8,"NCCCC[C@@H]1N[C@H](CNC(=O)[C@H]2Cc3ccccc3CN2)CCN(CC(c2ccccc2)c2ccccc2)C1=O [Compound 128, (R)—N-(((3S,5S)-3-(4-aminobutyl)-1-(2,2-diphenylethyl)-2-oxo-1,4-diazepan-5-yl)methyl)-1,2,3,4-tetrahydroisoquinoline-3-carboxamide]",< 1
9,"O=C(/C=C/c1ccc(Cl)cc1)NC[C@@H]1CCN(CC(c2ccccc2)c2ccccc2)C(=O)[C@H](CCN2CCOCC2)N1 [Compound 403, (E)-3-(4-chlorophenyl)-N-(((3S,5S)-1-(2,2-diphenylethyl)-3-(2-morpholinoethyl)-2-oxo-1,4-diazepan-5-yl)methyl)acrylamide]",< 0.1
10,"O=C(NC[C@@H]1CCN(CC(c2ccccc2)c2ccccc2)C(=O)[C@H](CCN2CCCCC2)N1)c1cccc(C(F)(F)F)c1 [Compound 436, N-(((3S,5S)-1-(2,2-diphenylethyl)-2-oxo-3-(2-(piperidin-1-yl)ethyl)-1,4-diazepan-5-yl)methyl)-3-(trifluoromethyl)benzamide]",< 1
11,"N=C(N)NCCC[C@@H]1N[C@H](CNC(=O)Cc2c[nH]c3ccccc23)CCN(CC2CCCCC2)C1=O [Compound 481, N-(((3S,5S)-1-(cyclohexylmethyl)-3-(3-guanidinopropyl)-2-oxo-1,4-diazepan-5-yl)methyl)-2-(1 H-indol-3-yl)acetamide]",< 0.1
12,"CC[C@H](CN1CC[C@@H](CNC(=O)/C=C/c2ccc(Cl)cc2)N[C@@H](CCN2CCCCC2)C1=O)c1ccccc1 [Compound 365, (E)-3-(4-chlorophenyl)-N-(((3S,5S)-2-oxo-1-((S)-2-phenylbutyl)-3-(2-(piperidin-1-yl)ethyl)-1,4-diazepan-5-yl)methyl)acrylamide]",< 0.01
13,"CCCCC(CC)C(=O)NC[C@@H]1CCN(CC(c2ccccc2)c2ccccc2)C(=O)[C@H](CCCN)N1 (stereo partly drawn) [Compound 221, N-(((3S,5S)-3-(3-aminopropyl)-1-(2,2-diphenylethyl)-2-oxo-1,4-diazepan-5-yl)methyl)-2-ethylhexanamide]",< 10
14,"CC[C@H](CN1CC[C@@H](CNC(=O)c2ccc3cc(OC)ccc3c2)N[C@@H](CCN2CCCCC2)C1=O)c1ccccc1 [Compound 537, 6-methoxy-N-(((3S,5S)-2-oxo-1-((S)-2-phenylbutyl)-3-(2-(piperidin-1-yl)ethyl)-1,4-diazepan-5-yl)methyl)-2-naphthamide]",< 0.1
15,"NCC[C@@H]1N[C@H](CNC(=O)C=Cc2ccccc2)CCN(CC(c2ccccc2)c2ccccc2)C1=O [Compound 279, N-(((3S,5S)-3-(2-aminoethyl)-1-(2,2-diphenylethyl)-2-oxo-1,4-diazepan-5-yl)methyl)cinnamamide]",< 1
16,"CS(=O)(=O)NCC[C@@H]1N[C@H](CNC(=O)c2ccc(Cl)c(Cl)c2)CCN(Cc2ccc(Cl)cc2Cl)C1=O [Compound 504, 3,4-dichloro-N-(((3S,5S)-1-(2,4-dichlorobenzyl)-3-(2-(methylsulfonamido)ethyl)-2-oxo-1,4-diazepan-5-yl)methyl)benzamide]",< 10

# Continued, values first:
row,IC50 [µM],SMILES
1,< 1,"C=CCOC(CN1CC[C@@H](CNC(=O)c2ccc3ccccc3c2)N[C@@H](CCCNC(=N)N)C1=O)c1ccccc1 (stereo partly drawn) [Compound 292, N-(((3S,5S)-1-(2-(allyloxy)-2-phenylethyl)-3-(3-guanidinopropyl)-2-oxo-1,4-diazepan-5-yl)methyl)-2-naphthamide]"
2,< 0.1,"NCC[C@@H]1N[C@H](CNC(=O)c2ccc3cc(Cl)ccc3c2)CCN(Cc2cc(Cl)cc(Cl)c2)C1=O [Compound 466, N-(((3S,5S)-3-(2-aminoethyl)-1-(3,5-dichlorobenzyl)-2-oxo-1,4-diazepan-5-yl)methyl)-6-chloro-2-naphthamide]"
3,< 10,"NCCC[C@@H]1N[C@H](CNC(=O)c2ccc3ccccc3c2)CCN(Cc2cccc(Cl)c2Cl)C1=O [Compound 318, N-(((3S,5S)-3-(3-aminopropyl)-1-(2,3-dichlorobenzyl)-2-oxo-1,4-diazepan-5-yl)methyl)-2-naphthamide]"
4,< 1,"CCC(CC)CN1CC[C@@H](CNC(=O)c2ccc3ccccc3c2)N[C@@H](CCCNC(=N)N)C1=O [Compound 297, N-(((3S,5S)-1-(2-ethylbutyl)-3-(3-guanidinopropyl)-2-oxo-1,4-diazepan-5-yl)methyl)-2-naphthamide]"
5,< 10,"NCCC[C@@H]1N[C@H](CNC(=O)c2ccc3ccccc3c2)CCN(Cc2cc(F)cc(F)c2)C1=O [Compound 313, N-(((3S,5S)-3-(3-aminopropyl)-1-(3,5-difluorobenzyl)-2-oxo-1,4-diazepan-5-yl)methyl)-2-naphthamide]"
6,< 0.1,"O=C(NC[C@@H]1CCN(CC(c2ccccc2)c2ccccc2)C(=O)[C@H](CCCN2CCC2)N1)c1ccc2ccccc2c1 [Compound 262, N-(((3S,5S)-3-(3-(azetidin-1-yl)propyl)-1-(2,2-diphenylethyl)-2-oxo-1,4-diazepan-5-yl)methyl)-2-naphthamide]"
7,< 10,"N=C(N)NCCC[C@@H]1N[C@H](CNC(=O)c2ccc3ccccc3c2)CCN(Cc2ccc3ccccc3c2)C1=O [Compound 251, N-(((3S,5S)-3-(3-guanidinopropyl)-1-(naphthalen-2-ylmethyl)-2-oxo-1,4-diazepan-5-yl)methyl)-2-naphthamide]"
8,< 10,"NCCC[C@@H]1N[C@H](CNC(=O)c2ccc3ccccc3c2)CCN(Cc2cc(F)cc(C(F)(F)F)c2)C1=O [Compound 322, N-(((3S,5S)-3-(3-aminopropyl)-1-(3-fluoro-5-(trifluoromethyl)benzyl)-2-oxo-1,4-diazepan-5-yl)methyl)-2-naphthamide]"
9,< 0.1,"CC[C@H](CN1CC[C@@H](CNC(=O)c2ccc3cc(Cl)ccc3c2)N[C@@H](CCNC(=N)N)C1=O)c1ccccc1 [Compound 457, 6-chloro-N-(((3S,5S)-3-(2-guanidinoethyl)-2-oxo-1-((S)-2-phenylbutyl)-1,4-diazepan-5-yl)methyl)-2-naphthamide]"
10,< 10,"NCCC[C@@H]1N[C@H](CNC(=O)c2ccc3ccccc3c2)CCN(Cc2ccccc2Cl)C1=O [Compound 317, N-(((3S,5S)-3-(3-aminopropyl)-1-(2-chlorobenzyl)-2-oxo-1,4-diazepan-5-yl)methyl)-2-naphthamide]"
11,< 0.1,"O=C(NC[C@@H]1CCN(CC(c2ccccc2)c2ccccc2)C(=O)[C@H](CCCNC2CCC2)N1)c1ccc2ccccc2c1 [Compound 247, N-(((3S,5S)-3-(3-(cyclobutylamino)propyl)-1-(2,2-diphenylethyl)-2-oxo-1,4-diazepan-5-yl)methyl)-2-naphthamide]"
12,< 1,"C[C@H](CN1CC[C@@H](CNC(=O)c2ccc3ccccc3c2)N[C@@H](CCCN)C1=O)c1ccccc1 [Compound 356, N-(((3S,5S)-3-(3-aminopropyl)-2-oxo-1-((S)-2-phenylpropyl)-1,4-diazepan-5-yl)methyl)-2-naphthamide]"
13,< 1,"CC[C@@H](CN1CC[C@@H](CNC(=O)c2ccc3cc(Cl)ccc3c2)N[C@@H](CCN)C1=O)C(C)C [Compound 469, N-(((3S,5S)-3-(2-aminoethyl)-1-((R)-2-ethyl-3-methylbutyl)-2-oxo-1,4-diazepan-5-yl)methyl)-6-chloro-2-naphthamide]"
14,< 0.1,"CC[C@H](CN1CC[C@@H](CNC(=O)c2ccc3cc(Cl)ccc3c2)N[C@@H](CCNC(=N)NC)C1=O)c1ccccc1 [Compound 458, 6-chloro-N-(((3S,5S)-3-(2-(3-methylguanidino)ethyl)-2-oxo-1-((S)-2-phenylbutyl)-1,4-diazepan-5-yl)methyl)-2-naphthamide]"
